Reference: ChEMBL document CHEMBL1201862, “PubChem BioAssay data set” (2004)
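Five concentrations, 48 hours, 96-well plates. GI50 is the concentration that inhibits growth by half.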 Activity calls are given as the source filed them. Cut-off read from the data, not from the text of the source: active = GI50 up to about 1.1 µM and inactive = higher.

Assays:
Experiment in all cases: NCI-60 cell line screen, 48 h
T47D = system: T47D
HL-60 = system: HL-60
SN12C = system: SN12C
Hs-578T = system: Hs-578T
HOP-92 = system: HOP-92
NCI-H226 = system: NCI-H226
OVCAR-5 = system: OVCAR-5
UACC-62 = system: UACC-62
SK-OV-3 = system: SK-OV-3
SNB-19 = system: SNB-19
A549 = system: A549
SF-539 = system: SF-539
KM12 = system: KM12
MDA-MB-435 = system: MDA-MB-435
HCC 2998 = system: HCC 2998
786-0 = system: 786-0
CAKI-1 = system: CAKI-1
NCI-H522 = system: NCI-H522
NCI-H460 = system: NCI-H460
TK-10 = system: TK-10

| SMILES | GI50 (T47D) | GI50 (HL-60) | GI50 (SN12C) | GI50 (Hs-578T) | GI50 (HOP-92) | GI50 (NCI-H226) | GI50 (OVCAR-5) | GI50 (UACC-62) | GI50 (SK-OV-3) | GI50 (SNB-19) | GI50 (A549) | GI50 (SF-539) | GI50 (KM12) | GI50 (MDA-MB-435) | GI50 (HCC 2998) | GI50 (786-0) | GI50 (CAKI-1) | GI50 (NCI-H522) | GI50 (NCI-H460) | GI50 (TK-10) |
| --- | --- | --- | --- | --- | --- | --- | --- | --- | --- | --- | --- | --- | --- | --- | --- | --- | --- | --- | --- | --- |
| CC(C)Cn1cnnc1NS(=O)(=O)c1cc(C(=O)NN)c(Cl)cc1S | > 10 µM (inactive) | > 10 µM (inactive) | > 10 µM (inactive) | > 10 µM (inactive) | > 10 µM (inactive) | > 10 µM (inactive) | > 10 µM (inactive) | > 10 µM (inactive) | > 10 µM (inactive) | > 10 µM (inactive) | > 10 µM (inactive) | > 10 µM (inactive) | > 10 µM (inactive) | > 10 µM (inactive) | > 10 µM (inactive) | > 10 µM (inactive) | > 10 µM (inactive) | > 10 µM (inactive) | > 10 µM (inactive) | > 10 µM (inactive) |
| C[C@]12CC[C@H](O)CC1=CC[C@@H]1[C@@H]2CC[C@]2(C)C(=O)[C@@H](N3CCOCC3)C[C@@H]12 | 31 µM (inactive) | 47.1 µM (inactive) | > 100 µM (inactive) | 90.4 µM (inactive) | 50.5 µM (inactive) | > 100 µM (inactive) | > 100 µM (inactive) | 76.4 µM (inactive) | > 100 µM (inactive) | > 100 µM (inactive) | > 100 µM (inactive) | > 100 µM (inactive) | > 100 µM (inactive) | > 100 µM (inactive) | > 100 µM (inactive) | > 100 µM (inactive) | 3.26 µM (inactive) | 23.6 µM (inactive) | > 100 µM (inactive) | > 100 µM (inactive) |
| CC(=O)Nc1cc(Cl)cc(Cl)c1O | > 100 µM (inactive) | > 100 µM (inactive) | > 100 µM (inactive) | > 100 µM (inactive) | > 100 µM (inactive) | > 100 µM (inactive) | > 100 µM (inactive) | > 100 µM (inactive) | > 100 µM (inactive) | > 100 µM (inactive) | > 100 µM (inactive) | > 100 µM (inactive) | > 100 µM (inactive) | > 100 µM (inactive) | > 100 µM (inactive) | > 100 µM (inactive) | > 100 µM (inactive) | > 100 µM (inactive) | > 100 µM (inactive) | > 100 µM (inactive) |
| Cc1cn(C2OC(CO)C(O)C2F)c(=O)[nH]c1=O (stereo not given) | > 100 µM (inactive) | > 100 µM (inactive) | > 100 µM (inactive) | > 100 µM (inactive) | > 100 µM (inactive) | > 100 µM (inactive) | > 100 µM (inactive) | 64.3 µM (inactive) | > 100 µM (inactive) | > 100 µM (inactive) | 61.5 µM (inactive) | > 100 µM (inactive) | > 100 µM (inactive) | > 100 µM (inactive) | > 100 µM (inactive) | 87.5 µM (inactive) | > 100 µM (inactive) | 19.3 µM (inactive) | 21.7 µM (inactive) | > 100 µM (inactive) |
| COc1cc(S(=O)(=O)Nc2ccc(-c3csc(/N=C\C=C\c4ccccc4)n3)cc2)ccc1Cl | 26.6 µM (inactive) | 43.3 µM (inactive) | > 100 µM (inactive) | 87.3 µM (inactive) | 22.8 µM (inactive) | 24.2 µM (inactive) | > 100 µM (inactive) | 37.9 µM (inactive) | > 100 µM (inactive) | 84.3 µM (inactive) | 80.5 µM (inactive) | 22 µM (inactive) | 84.5 µM (inactive) | > 100 µM (inactive) | > 100 µM (inactive) | > 100 µM (inactive) | > 100 µM (inactive) | 24.5 µM (inactive) | 0.0484 µM (active) | 42.2 µM (inactive) |
